Measurements from US7465716B2, “Targeted drug delivery with a hyaluronan ligand” (The Regents of the University of California, priority 1999, dated 2008).

How the values were obtained:
[1] = test system: B16-F10 tumor nodules in the lung; experiment: Effect of liposome composition on B16-F10 lung tumor nodules (Table 5); format: in vivo, C57/BI6 mice; settings: Doxorubicin 3 mg/kg on day 6, 10 mice/group
Protocol: As shown above, the presence of the targeting hyaluronan lipid, the type of lipid anchor that the hyaluronan was attached to and the lipid composition of the targeted liposomes influenced the anti-tumor effect. In this example, doxorubicin was encapsulated in liposomes of different compositions (described below in the liposome preparation) and injected into C57/BI6 mice at a dose of 3 mg/kg on day 6 after the mice had received the B16-F10 tumor as described above.
A specific, non-limiting example of doxorubicin loaded lipsome preparation involves thin lipid film hydration followed by sonication and extrusion. Briefly, the lipid components were weighed and dissolved in chloroform at the desired molar ratio(POPC:Chol:HA4-POPE:aT 60:40:3:0.1; POPC:Chol:POPG:aT 60:40:9:0.1; HSPC:Chol:PEG-DSPE:aT 56.2:38.3:5.3:0.1; HSPC:Chol:DPPG:aT 56.2:38.3:5.3:0.1; HSPC:Chol:HA4-DPPE:aT 56.2:38.3:5.3:0.1). […] Phospholipid concentration was determined by a phosphorous assay. DOX concentrations were determined by measurement of absorbance at 480 nm (using a molar coefficient=12,500) after solubilization of the liposomes in 90% isopropyl alcohol containing 0.075 M HCl. […] For both POPC and HSPC liposomes, mean vesicle diameter as measured by dynamic light scattering using the multimodal program was 120-150 nm (SD<35% of the mean) with a monodisperse particle size distribution. […]

[2] = test system: B16-F10 tumor nodules in the lung; experiment: Dose response on B16-F10 lung tumor nodules (Table 6); format: in vivo, C57/BI6 mice
Protocol: In this experiment groups of 10 animals were inoculated with the tumor cells on day zero and treated with the various formulations on day 6 as described above. To keep the lipid concentration constant as the dose of liposome encapsulated drug was reduced, HAL-Dox formulations were diluted with empty DSPG liposome (HSPC:Chol:DSPG 60:40:9 mole ration) to maintain the total lipid concentration at 1 micromole.

CV-1 cells = experiment: Chemosensitivity assay (SRB staining), CV-1 cells; format: cell-based, monkey; settings: compared with B16F10 cells / free DOX
Description: FIGS. 5A and 5B show the DOX dose dependence cytotoxicity determined after treatment of B16F10 and CV-1 cells with non-encapsulated DOX and DOX-loaded HAL. […] To examine the specificity of the HAL we treated CV-1 cells with the three formulations. CV-1 cells express a very low level of CD44. […] Furthermore, the cytotoxicity of both the HAL and POPG liposomes was. similar, confirming the low interaction of the liposomes with CV-1 cells.
The cytotoxic effect of free DOX or Liposomes-encapsulated DOX on the cells was assayed colorimetrically by the sulforhodamine B (SRB) staining. A sample containing 16,000 B16F10 or 25,000 CV-1 cells (from an exponentially growing culture) in 100 μl aliquots were plated onto 96-well flat bottom microtiter plates. The culture plates were incubated for 24 hours at 37° C. and 5% CO2 and then the medium in each well was replaced with 100 μl serum-free and antibiotic-free medium containing various concentration of free or liposome-encapsulated DOX. For each 10-fold increase in drug concentration, four drug concentration levels were tested. […] The cultures were incubated at 4° C. for 1 h and then washed and analyzed for SRB staining of the monolayers as described. The measurement of the absorbance of the SRB at 564 nm in the monolayers was determined by an Optimax microplate reader (Molecular Devices, Sunnyvale, Calif.). […]

B16F10 lung tumors = experiment: Chemotherapy of mice with B16F10 lung tumors (Table 4); format: in vivo, C57/BL6 mice; settings: treated day 6, counted day 14, N = 9; HAL-dox and POPG-dox at 8 mg/kg
Protocol: The drug delivery systems of this invention can be tested in the B16F10 lung metastases model. The number of B16F10 tumor nodules was enumerated in the lung of syngeneic C57/BL6 mice 14days after intravenouss injection into the tail vein of 1×10^5, 3×10^5 and 1×10^6 B16F10 cells/mouse in a volume of 0.2 mL PBS. These cell numbers were used because they span the range reported to give a countable number of nodules in previous investigations. The animals were sacrificed and the lungs were removed 14 days post inoculation of B16F10 cells, and then fixed in Bouin's solution. The visible tumor nodules were assessed and counted under dissecting microscope. N=9 per group. The dose of 3×10^5 cells/mouse yielded a suitable number of nodules to provide an adequate statistical analysis. […] The distribution of hyaluronanliposomes in B16F10 tumorial mice was measured on day 14 after innoculation. […] The animals (n=7) were sacrificed 3 hours after injection, the organs removed, the lungs were fixed in Bouin's solution and the radioactivity in each organ determined by gamma scintillation spectroscopy (Table 3).
The chemotherapeutic efficacy of doxorubicin delivered in various forms in the B16F10 lung tumor model was compared by counting the nodules on day 14 after innoculation of mice with B16F10. […] The animals were sacrificed and tumor nodules: counted on day 14. […]

[3] = 0.3 mg/kg, HAL-Dox = HAL-DPPE encapsulated Dox
[4] = 1 mg/kg, HAL-Dox = HAL-DPPE encapsulated Dox
[5] = 3 mg/kg, HAL-Dox = HAL-DPPE encapsulated Dox
[6] = 10 mg/kg, treated day 6, groups of 10

COc1cccc2c1C(=O)c1c(O)c3c(c(O)c1C2=O)C[C@@](O)(C(=O)CO)C[C@@H]3O[C@H]1C[C@H](N)[C@H](O)[C@H](C)O1 [free DOX, Doxorubicin]
# nodules Mean [1]: 171.60 ± 71.79 | # nodules Median [1]: 179 | # nodules Mean [2, 3]: 248.1 ± 56.9 | # nodules Median [2, 3]: 250.5 | # nodules Mean [2, 4]: 265.9 ± 34.5 | # nodules Median [2, 4]: 277 | # nodules Mean [2, 5]: 208.2 ± 82.1 | # nodules Median [2, 5]: 191 | # nodules Mean [2, 6]: 157.9 ± 70.6 | # nodules Median [2, 6]: 151 | cytotoxicity to CV-1 cells (in words) (CV-1 cells): significantly lower | # nodules Mean (B16F10 lung tumors): 56.11 ± 49.48 | # nodules Median (B16F10 lung tumors): 45
